Measured values as given in patent US20060264414A1, “Fluorous 2,2'-bipyridines and fluorinated biphasic sysems for ligand design” (The Board of Regents, University and Community College …, priority 2005, published 2006).
Like-named read-outs stand apart in the source and are kept apart here. Marks after values point to notes of the source that are not given here.

How the values were obtained:
[1] = tested on: Breast Cancer Cells (DC4 and DB-46); experiment: Survival studies (Clonogenic Assay); assay type: cell-based; settings: 10 micromolar Pt agent, DC4 and DB-46 cells
Description: Plots are appended to this document that provide viable cells vs. concentration of Pt agent.

[2] = value from ref. 13; cited from earlier work
[3] = in DMF, known values; cited from earlier work
[4] = Cyclic voltammetry reduction potentials; assay type: physicochemical; settings: THF; for ΔEp: scan rate 10 V/sec, TBAPF6; for E1/2: vs. SCE, 10 μm Pt ultramicroelectrode
Description: THF was found suitable for this study as 1-3 have sufficient solubility and the electrochemical potential window (+1.2 V to −3 V vs. SCE) extends to the potential range of interest.

[5] = Fluorous partition coefficient, CF3C6F11/toluene, GLC method; assay type: physicochemical; settings: 1:1 v/v perfluoromethylcyclohexane and toluene
Description: Fluorous partition coefficients (FPCs) were obtained for 1-4 for a 1:1 v/v biphasic mixture of “fluorous” solvent perfluoromethylcyclohexane, CF3C6F11 and toluene.

Molecule | reduction potential [3] | ΔEp [4] | E1/2 [4] | FPC = Cbpy(CF3C6F11)/Cbpy(toluene) [5] | also measured
[4,4′-Bis(4,4,4-trifluorobutyl)-2,2′-bipyridine]PtCl2 [Complex 1] |  |  |  |  | colonies surviving / survival [1]: around 2%
FC(F)(F)C(F)(F)C(F)(F)C(F)(F)C(F)(F)C(F)(F)C(F)(F)C(F)(F)CCCCc1ccnc(-c2cc(CCCCC(F)(F)C(F)(F)C(F)(F)C(F)(F)C(F)(F)C(F)(F)C(F)(F)C(F)(F)F)ccn2)c1 [—(CH2)4Rf8, 4,4′-di-[(CH2)4(CF2)7CF3]-2,2′-bipyridine] |  |  |  |  | FPC = Cbpy(CF3C6F11)/Cbpy(toluene) [2]: 0.67^c; fi = fluorophilicity = ln[FPC] [2]: −0.40^c
Cc1ccnc(-c2cc(C)ccn2)c1 [—CH3, 4,4′-dimethyl-2,2′-bipyridine] | −2.68 V | 253 mV | −2.493 V | no compound in the CF3C6F11 layer | 
c1ccc(-c2ccccn2)nc1 [—H, 2,2′-bipyridine] | −2.60 V |  |  |  | 
CCCCCCCCCc1ccnc(-c2cc(CCCCCCCCC)ccn2)c1 [—(CH2)8CH3] |  | 299 mV | −2.501 V | no compound in the CF3C6F11 layer | 
FC(F)(F)C(F)(F)C(F)(F)C(F)(F)C(F)(F)C(F)(F)C(F)(F)C(F)(F)C(F)(F)C(F)(F)CCCc1ccnc(-c2cc(CCCC(F)(F)C(F)(F)C(F)(F)C(F)(F)C(F)(F)C(F)(F)C(F)(F)C(F)(F)C(F)(F)C(F)(F)F)ccn2)c1 [Ligand 4] |  |  |  | 11 | fi = fluorophilicity = ln[FPC] [5]: +2.4
